From patent US6517812B1, “Inhibition of psychostimulant-induced and nicotine-induced craving” (The General Hospital Corporation, priority 1997, dated 2003)

How the values were obtained:
[1] = test system: rat frontal cortex; test: Laser Doppler-flowmetry (LDF) of regional cortical blood flow (CBF) in rat; type: in vivo; settings: rat, bolus infusion 1, 5, 10 and 20 mg/kg (data not shown)
Procedure: (§1) All procedures were carried out in accordance with NIH guidelines. Male Harlan Sprague-Dawley rats (225-300 gm) were anesthetized briefly with 1.5% halothane in oxygen for insertion of left femoral arterial and venous cannulae and placement of tracheostomy for mechanical ventilation (using a 16 gauge intravenous catheter, Inste-W, Becton Dickinson, Sandy, Utah). All wounds were infiltrated with 1% lidocaine before incision. Following surgery, the inspired halothane concentration was reduced to 0.7% and rats were paralyzed with 2 mg/kg intravenous pancuronium, followed by a continuous intravenous infusion of pancuronium at 2 mg/kg/hr. Pancuronium was dissolved in normal saline administered at 5 ml/kg/hr. Rats were mechanically ventilated (in a small animal volume controlled ventilator, Harvard Apparatus, Inc., South Natick, Mass.) with a 80/20 air/oxygen mixture, an inspiratory to expiratory ratio of 1:1, and an initial tidal volume of 3.0 ml at a rate of 40 breaths per minute. Ventilation parameters were adjusted to maintain normal arterial blood gases (pH=7.40±0.01, PaCO2=40±2, PaO2=145±10). Arterial blood samples (150 μl) withdrawn from cannula were analyzed for arterial partial pressures of oxygen, carbon dioxide, and pH (Ciba-Coming Model 1304) before administration of drugs, and at the end of each experiment before sacrifice, to ensure animal stability. Arterial blood pressure and rectal temperature were monitored throughout the experiment. […] Rats torsos were wrapped in two heating blankets (Gaymar, Orchid Park, N.Y.) circulating warm water to maintain core temperature at 37-38° C. To minimize MRI motion artifact, rats were placed into a custom plastic cradle attached to a head frame machined from delrin plastic (David Kopf Instruments, Fremont, Calif.); heads were fixed with plastic screws inserted into the ear canals and a bar inserted under the front incisors. Rat heads were shaved and covered with gel toothpaste to reduce magnetic susceptibility artifacts arising from air-tissue interfaces; ear canals and oropharynx were also filled with toothpaste. A surface coil was secured over the dorsal surface of the head before positioning the animal in the magnet center. Cocaine (RBI, Natick, Mass.), SCH-23390 (RBI, Natick, Mass.), and cocaine methiodide (NIDA, Bethesda, Md.) were dissolved in normal saline and administered in a 0.5 ml volume at a rate of 1 ml/min via the femoral vein. Sixty minutes passed before injections of cocaine were repeated.
Regional cortical blood flow was determined by LDF (Perimed, PF2B, Stockholm, Sweden) as described previously (Ayata, et al., 1996, J. Cereb. Blood Flow Metab., 16:539-541). Rats (n=8) were prepared exactly as for dynamic MR studies and positioned in a standard stereotaxic head frame. With the scalp incised and retracted, two holes (1-2 mm in diameter) were drilled through the skull 2 mm lateral to midline; one hole was 2 mm anterior to bregma overlying frontal cortex, and the other was 8 mm posterior to bregma to examine occipital cortex. The flow probe was positioned directly upon exposed dura mater in a puddle of mineral oil. […] All data were collected, stored, and analyzed using MacLab/8 data acquisition and analysis system (ADInstruments, Mountain View, Calif.). Arterial pressure was continuously monitored and the data stored; heart rate was calculated from arterial pressure pulses by the data acquisition software. […]

[2] = literature (Schindler 1992, Hemby 1994); cited from earlier work
[3] = test system: Male Harlan Sprague-Dawley rats; test: Arterial blood pressure and heart rate monitoring in rat; settings: bolus infusion 1, 5, 10 and 20 mg/kg
Procedure: as §1, with “To minimize MRI motion artifact, rats were placed into a custom plastic cradle attached to a head frame machined from delrin plastic (David Kopf Instruments, Fremont, Calif.); heads were fixed with plastic screws inserted into the ear canals and a bar inserted under the front incisors. Rat heads were shaved and covered with gel toothpaste to reduce magnetic susceptibility artifacts arising from air-tissue interfaces; ear canals and oropharynx were also filled with toothpaste. A surface coil was secured over the dorsal surface of the head before positioning the animal in the magnet center. Cocaine (RBI, Natick, Mass.), SCH-23390 (RBI, Natick, Mass.), and cocaine methiodide (NIDA, Bethesda, Md.) were dissolved in normal saline and administered in a 0.5 ml volume at a rate of 1 ml/min via the femoral vein. Sixty minutes passed before injections of cocaine were repeated.” left out
Regional cortical blood flow was determined by LDF (Perimed, PF2B, Stockholm, Sweden) as described previously (Ayata, et al., 1996, J. Cereb. Blood Flow Metab., 16:539-541). […] All data were collected, stored, and analyzed using MacLab/8 data acquisition and analysis system (ADInstruments, Mountain View, Calif.). Arterial pressure was continuously monitored and the data stored; heart rate was calculated from arterial pressure pulses by the data acquisition software. […]

[4] = target: T1, D1 receptor (Rattus norvegicus, UniProt P18901); test: SCH-23390 pretreatment before cocaine, LDF of frontal cortex CBF in rat; type: in vivo; settings: 0.5 mg/kg cocaine after SCH-23390 pretreatment, n=3, p<0.04
T1 construct: Male Harlan Sprague-Dawley rats (225-300 gm) were anesthetized briefly; from tissue; host or cells: brain of living male Sprague-Dawley rats (in vivo)
T1 sequence (P18901 whole entry): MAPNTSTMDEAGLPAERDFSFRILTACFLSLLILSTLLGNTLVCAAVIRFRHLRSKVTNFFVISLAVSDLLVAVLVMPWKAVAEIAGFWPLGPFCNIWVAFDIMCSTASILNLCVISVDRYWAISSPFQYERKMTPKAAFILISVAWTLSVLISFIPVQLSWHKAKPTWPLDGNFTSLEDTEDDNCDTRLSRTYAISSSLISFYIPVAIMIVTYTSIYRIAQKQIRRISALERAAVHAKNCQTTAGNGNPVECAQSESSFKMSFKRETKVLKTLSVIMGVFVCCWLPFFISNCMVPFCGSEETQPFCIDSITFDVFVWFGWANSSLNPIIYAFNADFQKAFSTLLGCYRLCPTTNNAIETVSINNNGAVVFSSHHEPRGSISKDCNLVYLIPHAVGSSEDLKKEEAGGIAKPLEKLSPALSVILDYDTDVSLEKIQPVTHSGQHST
Procedure: All procedures were carried out in accordance with NIH guidelines. Male Harlan Sprague-Dawley rats (225-300 gm) were anesthetized briefly with 1.5% halothane in oxygen for insertion of left femoral arterial and venous cannulae and placement of tracheostomy for mechanical ventilation (using a 16 gauge intravenous catheter, Inste-W, Becton Dickinson, Sandy, Utah). All wounds were infiltrated with 1% lidocaine before incision. Following surgery, the inspired halothane concentration was reduced to 0.7% and rats were paralyzed with 2 mg/kg intravenous pancuronium, followed by a continuous intravenous infusion of pancuronium at 2 mg/kg/hr. Pancuronium was dissolved in normal saline administered at 5 ml/kg/hr. […] Arterial blood samples (150 μl) withdrawn from cannula were analyzed for arterial partial pressures of oxygen, carbon dioxide, and pH (Ciba-Coming Model 1304) before administration of drugs, and at the end of each experiment before sacrifice, to ensure animal stability. Arterial blood pressure and rectal temperature were monitored throughout the experiment. […]
Regional cortical blood flow was determined by LDF (Perimed, PF2B, Stockholm, Sweden) as described previously (Ayata, et al., 1996, J. Cereb. Blood Flow Metab., 16:539-541). […] All data were collected, stored, and analyzed using MacLab/8 data acquisition and analysis system (ADInstruments, Mountain View, Calif.). […]

[5] = target: T1, D1 receptor; test: SCH-23390 pretreatment before cocaine, CBV-weighted fMRI in rat; type: in vivo; settings: post 0.5 mg/kg cocaine

| Compound | change in frontal cortex CBF [1] | blood brain barrier passage [2] | blood pressure and heart rate [3] | change in CBF relative to pre-drug baseline [4] | drop in CBV at nadir, frontal neocortex [5] | drop in CBV at nadir, striatum [5] |
| --- | --- | --- | --- | --- | --- | --- |
| COC(=O)[C@H]1[C@@H](OC(=O)c2ccccc2)C[C@@H]2CC[C@H]1[N+]2(C)C.[I-] [cocaine methiodide] | did not produce any significant change | does not cross the blood brain barrier | transient decrease |  |  |  |
| CN1CCc2cc(Cl)c(O)cc2[C@@H](c2ccccc2)C1 [SCH-23390] |  |  |  | −18±3% | 5% | 8% |
